In patent US20230310374A1, “COMPOSITIONS AND METHODS FOR TREATING HEADACHE OR FACIAL PAIN” (priority 2021, published 2023):
Where two headings read alike, the source gives them in different places.

What was measured:
Human 5-HT1B receptor = target: T1, Human 5-HT1B receptor (Homo sapiens, UniProt P28222); experiment: Hit Hunter cAMP secondary messenger assay, Gi agonist mode; format: cell-based; conditions: for Curve Top (% activation) / Emax: relative to 5-HT MAX control
T1 construct: host or cells: CHO-K1 (hamster), stably transfected; cAMP Hunter cell line
T1 sequence (P28222 whole entry): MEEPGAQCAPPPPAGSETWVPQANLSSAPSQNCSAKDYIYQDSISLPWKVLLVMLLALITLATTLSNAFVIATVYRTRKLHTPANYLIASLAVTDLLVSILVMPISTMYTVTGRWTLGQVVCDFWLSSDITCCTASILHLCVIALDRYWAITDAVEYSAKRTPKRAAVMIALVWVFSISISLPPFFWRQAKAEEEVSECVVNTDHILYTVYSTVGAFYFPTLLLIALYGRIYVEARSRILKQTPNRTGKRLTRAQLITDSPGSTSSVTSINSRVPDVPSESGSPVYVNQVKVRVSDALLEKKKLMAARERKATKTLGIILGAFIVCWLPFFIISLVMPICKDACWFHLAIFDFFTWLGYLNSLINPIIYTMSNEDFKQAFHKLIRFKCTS
Excerpt: Methods: cAMP Secondary Messenger Pathway Assay Method.
Hit Hunter® cAMP assays were used to monitor the activation of a GPCR via Gi and Gs secondary messenger signaling in a homogenous, non-imaging assay format using DiscoverX's Enzyme Fragment Complementation (EFC) with β-galactosidase (β-Gal) as the functional reporter. The enzyme is split into two complementary portions: EA for Enzyme Acceptor and ED for Enzyme Donor. ED is fused to cAMP and in the assay competes with cAMP generated by cells for binding to a cAMP-specific antibody. Active β-Gal is formed by complementation of exogenous EA to any unbound EDcAMP.
cAMP Hunter cell lines were expanded from freezer stocks according to standard procedures. Human 5-HT1B receptor-mediated cAMP signaling was evaluated in stably transfected hamster-derived CHO-K1 cells. Cells were seeded in a total volume of 20 μL into white walled, 384-well microplates and incubated at 37° C. overnight. cAMP modulation was determined using the DiscoverX HitHunter cAMP XS+ assay.
For Gi agonist determination, cells were incubated with sample in the presence of 15 mM forskolin to induce response. Media was aspirated from cells and replaced with 10 μL HBSS/10 mM Hepes. Intermediate dilution of sample stocks was performed to generate 4× sample in assay buffer. 5 μL of 4× sample plus 5 μL of 4× forskolin was added to cells and incubated at 37° C. for 30 minutes. Final assay vehicle concentration was 1%. After compound incubation, assay signal was generated through incubation with 20 μL cAMP XS+ED/CL lysis cocktail for one hour followed by incubation with 20 μL cAMP XS+EA reagent for three hours at room temperature. Microplates were read following signal generation with a PerkinElmer Envision™ instrument for chemiluminescent signal detection.
Compound activity was analyzed using CBIS data analysis suite (ChemInnovation, CA). For Gi agonist mode assays, percentage activity is calculated using the following formula: % Activity=100%×(1−(mean RLU of test sample−mean RLU of MAX control)/(mean RLU of vehicle control−mean RLU of MAX control)).
The same human 5-HT1B receptor functional agonism assay as described above was used in a separate experiment.

rats = conditions: cited from earlier work
humans = conditions: cited from earlier work
mice [1] = conditions: cited from earlier work
mice [2] = conditions: cited from earlier work; remark: listed apart in the source
[3] = system: female mice exposed to stress and sodium nitroprusside (SNP); experiment: Stress plus sodium nitroprusside (SNP)-induced migraine mice model, von Frey facial withdrawal score; format: in vivo, C57BL/6j mice
Experimental: To evaluate the prophylactic and acute/abortive treatment effects of single administration of 5-OH-DMT to female mice exposed to stress and sodium nitroprusside (SNP) as a model of stress-primed migraine pain.
C57BL/6j mice (7-8 weeks, female) were acclimated for 1 week prior to the experiment. Mice were kept in groups of 4-5 animals per cage in a housing room with temperature maintained at 21-23° C. and 40-70% relative humidity, on a 12/12 h light:dark cycle. Chow and water were available ad libitum except during testing. […] On Day 10, von Frey testing was conducted again to confirm that mechanical withdrawal scores were similar across naïve and stress-exposed mice. Stress-exposed animals were randomized to treatment groups based on body weight and facial mechanical withdrawal score. Then, each animal was administered a 1st intraperitoneal (i.p.) injection of 5-OH-DMT (dissolved in 0.9% sterile saline and administered at 3, 10 or 30 mg/kg in a volume of 10 ml/kg) or vehicle.
On Day 11, at 24 h following the 1st injection, vehicle or 0.1 mg/kg sodium nitroprusside (SNP) was given i.p. and facial mechanical withdrawal scores were assessed 3 hours later to confirm establishment of a stress+SNP-induced hypersensitive state in Day 10 vehicle-treated animals (Groups 2-6) or, in Day 10 test article-treated […] (Groups 7-9), assess the prophylactic effect of compound administration. On Day 12, at 23 hours after vehicle or SNP injection, each animal was administered a 2nd i.p. injection of vehicle or 5-OH-DMT or sumatriptan (acute treatment positive control animals received vehicle on Day 10). One hour later, facial withdrawal scores were assessed to evaluate acute effects of treatments (Groups 2-6) or durability of prophylactic effects (Groups 7-9).
Mice were allowed to acclimate to the testing cage for 60 minutes each day before the test. To assess pain-like behaviors induced by noxious mechanical stimulation applied on the vibrissal pad (orofacial area), the mouse was placed in a small cage with a metal mesh ceiling and a wood bottom (10 cm×5 cm×5 cm). The semiparametric scoring system used to evaluate the response of the animal to the mechanical stimulation was described in detail by Vos et al. (1994). Mechanical stimulation delivered by a von Frey hair with the bending force of 0.07 g was applied bilaterally to the vibrissal pad. […] The summated score of these 8 trials was counted as the animal's response score. […]

## NCCc1c[nH]c2ccc(O)cc12 [5-HT, serotonin, reference compound]
Human 5-HT1B receptor; Study #1
  Curve Top (% activation): 100.22%
Human 5-HT1B receptor; Study #2
  Curve Top (% activation): 107.54%
Human 5-HT1B receptor; first experiment (Study #1)
  agonist activity at human 5-HT1B receptors: full agonist activity
Human 5-HT1B receptor; second experiment (Study #2)
  agonist activity at human 5-HT1B receptors: full agonist activity

## COc1ccc2[nH]cc(CCN(C)C)c2c1 [5-MeO-DMT, 5-methoxy-N,N-dimethyltryptamine]
rats
  acute analgesic effects: exhibited acute analgesic effects
humans; insufflation of 10 mg
  time of initial effects: 3 to 4 min
  time of termination of effects: 60 to 70 min
humans; intravenous
  dose range with psychoactive effects: 0.25 to 3.1 mg
humans; oral, after pretreatment with a monoamine oxidase inhibitor (e.g., harmaline)
  dose with psychoactive effects: 10 to 25 mg
humans; oral, encapsulated
  dose with psychoactive effects: 30 mg
humans; smoked
  dose range with psychoactive effects: 6 to 30 mg
humans; sublingual
  dose with psychoactive effects: ~10 mg
Mice [1]; indicative of in vivo 5-HT2A receptor activation
  head twitch response in mice: induces the head twitch response
Mice [1]; mice, i.p. or s.c.
  dose eliciting mouse head-twitch response: ≥ 10 mg/kg

## CN(C)CCc1c[nH]c2ccc(O)cc12 [5-OH-DMT, 5-hydroxy-N,N-dimethyltryptamine]
humans; insufflation of 40 mg
  duration of short-lived aftereffects: up to 90 minutes
  time of initial effects: 5 min
Mice [2]
  acute anti-inflammatory and analgesic effects: exhibited acute anti-inflammatory and analgesic effects
Human 5-HT1B receptor
  EC50: ≤ 1 nM
Human 5-HT1B receptor; Study #1, read-out: Maximal activation (%)
  Emax: 104%
Human 5-HT1B receptor; Study #2
  Curve Top (% activation): 100.41%
Human 5-HT1B receptor; first experiment (Study #1)
  agonist activity at human 5-HT1B receptors: full agonist activity
Human 5-HT1B receptor; read-out: Maximal activation (%), Study #2
  Emax: 96.7%
Human 5-HT1B receptor; second experiment (Study #2)
  agonist activity at human 5-HT1B receptors: full agonist activity
Mice [1]; mice, subcutaneous
  head twitch response ED50: 15 mg/kg
[3]; 30 mg/kg i.p. on Day 10, 24 h before SNP, tested Day 11, 3 h after SNP (G9)
  facial hypersensitivity vs vehicle (G2), prophylactic treatment: significantly reduced facial hypersensitivity
[3]; 30 mg/kg i.p. on Day 10, tested Day 12 (G9)
  facial hypersensitivity vs vehicle (G2), durability of prophylactic effect: significantly reduced facial hypersensitivity
[3]; 30 mg/kg i.p. on Day 12, tested 1 h after injection #2 (G6)
  facial hypersensitivity vs vehicle (G2), acute treatment: significantly reduced facial hypersensitivity

## CNS(=O)(=O)Cc1ccc2[nH]cc(CCN(C)C)c2c1 [sumatriptan, reference compound]
[3]; sumatriptan 1 mg/kg i.p. on Day 12, tested 1 h after injection #2 (G3)
  facial hypersensitivity vs vehicle (G2), acute treatment: significantly reduced facial hypersensitivity
